Measured values as given in PubChem BioAssay (NCI).
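Step 1: Grow cells in 96-well plates. Step 2: Expose to compound for 48 hours at 5 concentrations. Step 3: Interpolate endpoints linearly; if unreached, use highest concentration. GI50 = concentration required for 50% inhibition of growth. The concentration for full growth arrest is given as TGI.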

Columns and labels:
Assay in all cases: NCI-60 cell line screen, 48 h
[1] = test system: 786-0 renal
[2] = test system: A498 renal
[3] = test system: A549 NSCLC
[4] = test system: ACHN renal
[5] = test system: BT-549 breast
[6] = test system: CAKI-1 renal
[7] = test system: CCRF-CEM leukemia
[8] = test system: COLO 205 colon
[9] = test system: DU-145 prostate
[10] = test system: EKVX NSCLC
[11] = test system: HCC-2998 colon
[12] = test system: HCT-116 colon
[13] = test system: HCT-15 colon
[14] = test system: HL-60(TB) leukemia
[15] = test system: HOP-62 NSCLC
[16] = test system: HOP-92 NSCLC
[17] = test system: HS 578T breast
[18] = test system: HT29 colon
[19] = test system: IGROV1 ovarian
[20] = test system: K-562 leukemia
[21] = test system: KM12 colon
[22] = test system: LOX IMVI melanoma
[23] = test system: M14 melanoma
[24] = test system: MALME-3M melanoma
[25] = test system: MCF7 breast
[26] = test system: MDA-MB-231 breast
[27] = test system: MDA-MB-435
[28] = test system: MOLT-4 leukemia
[29] = test system: NCI-H226 lung
[30] = test system: NCI-H460 lung
[31] = test system: NCI-H522 lung
[32] = test system: NCI/ADR-RES ovarian
[33] = test system: OVCAR-4 ovarian
[34] = test system: OVCAR-5 ovarian
[35] = test system: OVCAR-8 ovarian
[36] = test system: PC-3 prostate
[37] = test system: RPMI-8226 leukemia
[38] = test system: RXF 393 renal
[39] = test system: SF-268 CNS
[40] = test system: SF-295 CNS
[41] = test system: SF-539 CNS
[42] = test system: SK-MEL-2 melanoma
[43] = test system: SK-MEL-28 melanoma
[44] = test system: SK-MEL-5 melanoma
[45] = test system: SK-OV-3 ovarian
[46] = test system: SN12C renal
[47] = test system: SNB-19 CNS
[48] = test system: SNB-75 CNS
[49] = test system: SR leukemia
[50] = test system: SW-620 colon
[51] = test system: T-47D breast
[52] = test system: TK-10 renal
[53] = test system: U251 CNS
[54] = test system: UACC-257 melanoma
[55] = test system: UACC-62 melanoma
[56] = test system: UO-31 renal

Structure (SMILES): O=C1C(N2CCN(c3ccccc3)CC2)=C(Cl)C(=O)c2ncccc21
- GI50 [1]: 6.43 µM
- TGI [1]: 18.8 µM
- GI50 [2]: 13.5 µM
- TGI [2]: 34 µM
- GI50 [3]: 16.5 µM
- TGI [3]: 32.6 µM
- GI50 [4]: 2.21 µM
- TGI [4]: 5.8 µM
- GI50 [5]: 10.2 µM
- TGI [5]: 21.8 µM
- GI50 [6]: 5.5 µM
- TGI [6]: 18.2 µM
- GI50 [7]: 2.33 µM
- TGI [7]: 6.65 µM
- GI50 [8]: 4.53 µM
- TGI [8]: 17.1 µM
- GI50 [9]: 11.3 µM
- TGI [9]: 23.6 µM
- GI50 [10]: 1.73 µM
- TGI [10]: 3.38 µM
- GI50 [11]: 12 µM
- TGI [11]: 24.9 µM
- GI50 [12]: 1.73 µM
- TGI [12]: 3.11 µM
- GI50 [13]: 2.08 µM
- TGI [13]: 6.22 µM
- GI50 [14]: 1.36 µM
- TGI [14]: 3.94 µM
- GI50 [15]: 17.3 µM
- TGI [15]: 31.4 µM
- GI50 [16]: 1.49 µM
- TGI [16]: 2.93 µM
- GI50 [17]: 13.6 µM
- TGI [17]: 47.4 µM
- GI50 [18]: 12 µM
- TGI [18]: 27.3 µM
- GI50 [19]: 3.48 µM
- TGI [19]: 12.3 µM
- GI50 [20]: 2.04 µM
- TGI [20]: 5.51 µM
- GI50 [21]: 20.7 µM
- TGI [21]: 43.6 µM
- GI50 [22]: 1.59 µM
- TGI [22]: 3.07 µM
- GI50 [23]: 3.92 µM
- TGI [23]: 14.7 µM
- GI50 [24]: 1.95 µM
- TGI [24]: 4.25 µM
- GI50 [25]: 1.65 µM
- TGI [25]: 3.6 µM
- GI50 [26]: 1.68 µM
- TGI [26]: 3.21 µM
- GI50 [27]: 1.77 µM
- TGI [27]: 3.29 µM
- GI50 [28]: 1.97 µM
- TGI [28]: 5.38 µM
- GI50 [29]: 14.3 µM
- TGI [29]: 31.9 µM
- GI50 [30]: 6.73 µM
- TGI [30]: 22.4 µM
- GI50 [31]: 1.73 µM
- TGI [31]: 3.55 µM
- GI50 [32]: 4.33 µM
- TGI [32]: 20.7 µM
- GI50 [33]: 1.79 µM
- TGI [33]: 3.44 µM
- GI50 [34]: 16.6 µM
- TGI [34]: 32 µM
- GI50 [35]: 4.72 µM
- TGI [35]: 17.6 µM
- GI50 [36]: 9.22 µM
- TGI [36]: 23.1 µM
- GI50 [37]: 2.1 µM
- TGI [37]: 5.37 µM
- GI50 [38]: 1.87 µM
- TGI [38]: 3.43 µM
- GI50 [39]: 15.2 µM
- TGI [39]: 29.6 µM
- GI50 [40]: 14.2 µM
- TGI [40]: 27.3 µM
- GI50 [41]: 6.96 µM
- TGI [41]: 20 µM
- GI50 [42]: 11.2 µM
- TGI [42]: 23.6 µM
- GI50 [43]: 3.31 µM
- TGI [43]: 10.3 µM
- GI50 [44]: 13.1 µM
- TGI [44]: 25.7 µM
- GI50 [45]: 13.8 µM
- TGI [45]: 29.9 µM
- GI50 [46]: 4.97 µM
- TGI [46]: 17.8 µM
- GI50 [47]: 16.1 µM
- TGI [47]: 30.6 µM
- GI50 [48]: 17.5 µM
- TGI [48]: 38 µM
- GI50 [49]: 1.89 µM
- TGI [49]: 6.42 µM
- GI50 [50]: 1.67 µM
- TGI [50]: 3.89 µM
- GI50 [51]: 1.76 µM
- TGI [51]: 3.95 µM
- GI50 [52]: 12.4 µM
- TGI [52]: 25.5 µM
- GI50 [53]: 10.3 µM
- TGI [53]: 22.7 µM
- GI50 [54]: 2.21 µM
- TGI [54]: 6.22 µM
- GI50 [55]: 3.43 µM
- TGI [55]: 12.4 µM
- GI50 [56]: 1.91 µM
- TGI [56]: 4.3 µM
